Patent US12083084B2, “Method for enhancing energy production and metabolism in cells” (REPLICON HEALTH OY, priority 2013, dated 2024)
“Also recorded” adds a separate entry of the source. Each block holds one compound with its values, some of them ahead of it.

What was measured:
Format in all cases: cell-based
[1] = test system: primary human hepatocytes; test: Cellular ROS detection (DCFDA) in primary human hepatocytes; conditions: primary human hepatocytes, moderate metabolic stress (1.5-2 h after change of medium)
Description: (§1) Primary human hepatocytes were purchased from Celsis In Vitro Technologies (1450 South Rolling Road Baltimore, MD 21227, USA). […] According to the information provided by the Celsis, hepatocytes from each donor should have at least 70% viability and more than 5 million viable cells. The medium for the culture of hepatocytes was provided by Celsis. They were InVitroGRO CP (for plating) medium (Z99029) and InVitroGRO HI (for incubation) medium (Z99009). Antibiotics (Torpedo Antibiotics Mix, Z990007) were also from Celsis. The thaw, plating and culture of cells were carried out according to the instruction provided by the Celsis In Vitro Technologies.
(§2) For the measurement of cell viability after treatment of test compound, CytoTox-One Homogeneous Membrane Integrity Assay kit (Promega, G7891) was used. The CytoTox-One Assay is a rapid fluorescent measure of the release of lactate dehydrogenase (LDH) from cells with a damaged membrane. The number of […] cells correlates to the fluorescence intensity determined by a fluorescence plate reader (Hidex Chameleon V multiplate reader, Hidex Oy, Turku, Finland) with excitation 544 nm and emission 590 nm. For the measurement of cellular reactive oxygen species (ROS), DCFDA Cellular ROS Detection Assay Kit from Abcam (ab113851) was used. Reactive oxygen species (ROS) assay kit (ab113851) uses the cell permeant reagent 2′,7′-dichlorofluorescein diacetate (DCFDA), a fluorogenic dye that measures hydroxyl, peroxyl and other ROS activity with the cell. The activity of ROS was measured by a fluorescence plate reader (Hidex) with excitation/emission wavelengths of 485 nm/535 nm.
(§3) The culture of primary hepatocytes was carried out based on the instructions provided by Celsis. After thawing, the cells were suspended in InVitroGRO CP medium. Thereafter the viability of cells was determined using the Trypan Blue exclusion method. Then the concentration of cells was adjusted using InVitroGRO CP medium, so about 30000-35000 cells/100 μl/well can be seeded in collagen I coated 96 well plate (BD, 734-0248).
(§4) After seeding, the cells were cultured overnight in the cell culture incubator (Sanyo MCO 18) at atmosphere of 95% air, 5% CO2 at 37° C. Thereafter, the culture medium for the cells was changed to InVitroGRO Hi (Hi Medium) containing test compound (D-glyceric acid calcium salt dehydrate) at the concentrations of 0, 0.2, 2 and 20 μg/ml (study 1, Table 1.1.1) and 0, 0.4, 2 and 10 μg/ml (study 2, Table 1.1.2).
In study 3 also LGA and HPA were tested and compared to DGA (see FIGS. 11c and 11d) with same doses as in study 2.
In studies 2-4 additional diet with 0.75 mM of palmitic acid (“fatty acid diet”) was added to Hi Medium. Hi Medium in itself contains ample amounts of glucose and fructose and other necessary ingredients for keeping viability of the cell culture at optimal level.
(§5) After 24 h (in study 1) and 20 h (in studies 2-4) incubation medium was renewed. Second renewal of the incubation medium occurred at 48 h in study 1 and at 40 h in other studies. ROS and LDH were measured after 1.5-2 hours after last change of the medium, i.e. in a situation with moderate metabolic stress.
The measurement of cellular reactive oxygen species (ROS) was carried out according to the instruction of Abcam (ab113851). At the end of treatment time point, culture medium was taken away for leaked LDH measurement and cells were washed with 100 μl/well PBS once. Thereafter 100 μl/well of DCDA mix was added and incubated for 45 min at 37° C. in the dark. Then cells were washed once with 1× buffer solution. The fluorescence signal was measured at an excitation wavelength of 485 nm and emission wavelength of 535 nm using the Hidex Chameleon V multiplate reader (Hidex Oy, Turku, Finland).
For the LDH and ROS assays, individual values of each measurement were stored and average value of fluorescence signals of various repeats of each treatment at studied time point were calculated and compared. […]

human hepatocytes = test: Gene expression from hepatocytes lysates; conditions: donor three, N = 5; 14 (μM)
[2] = test system: human primary hepatocytes; test: NAD+/NADH quantification in human hepatocytes; design: NADtot / NADH / NAD+ / NAD+/NADH: unit not given here; conditions: donor alpha, new nutrition at 48 h, N = 5; 14 (μM); 48 h + 3 h
Description: For the measurement of total NAD (NADtot=NADH+NAD^+) and NAD^+/NADH ratio, a NAD^+/NADH Quantification kit (MAK037) from Sigma was used. NAD functions as an electron carrier, fluctuating between the oxidized (NAD^+) and reduced (NADH) forms. In addition, NAD^+ plays critical roles in ADP-ribosylation reaction and as a substrate for sirtuins. According to the Sigma instruction, the NAD^+/NADH Quantification kit (Sigma) provides a convenient tool for sensitive detection of NAD, NADH and their ratio without requirement to purify them from samples. Important to notice is that the kit measures NADH and NAD^+ in whole cell including all cell organelles and compartments. Mitochondrial matrix is clearly dominant NADH producer from TCA and beta oxidation (consuming naturally the same amount of NAD^+ in redox reactions). Importantly, formed NADH is also typically oxidized into NAD^+ in the matrix by Complex I in ETC. As is well known anaerobic carbohydrate metabolism, i.e. glycolysis, in cytosol also consumes NAD^+ and produces NADH.
Cell culture in NADH-tests was like in Example 1.1. The change of the medium with DGAcs was conducted at 0 h, 24 h and 48 h. NAD measurements were made at 48+3 h in all cases. For CDP also HPA was tested, and for DOO no new nutrition at 48 h was added, i.e. test was conducted in fasting conditions.

[3] = test system: primary human hepatocytes; test: Cell viability by LDH release (CytoTox-One) in primary human hepatocytes; conditions: for viability compared to 0 dose (in words): primary human hepatocytes, standard treatment, moderate metabolic stress
Description: as §1, §2, §3, §4, §5
The measurement of LDH from medium (leaked LDH) and from cell and medium (total LDH) was carried out according to the instruction provided by the Promega (G7891). The plate was incubated at an incubator to achieve a temperature of 22° C. Thereafter, equal volume of CytoTox-ONE Reagent to cell culture medium (100 μl) was added to each well and mix for 30 seconds. Then they were incubated for 10 min at 22° C., and then 50 μl of Stop Solution was added to each well. After gentle mixing, the fluorescence signal was measured at an excitation wavelength of 560 nm and emission wavelength of 590 nm using the Hidex Chameleon V multiplate reader (Hidex Oy, Turku, Finland).
For the total LDH measurement, all the steps are same except a 2 μl of Lysis Solution (per 100 μl original volume) will be added to the each well to lyse the cells before CytoTox-ONE Reagents will be added.
For the LDH and ROS assays, individual values of each measurement were stored and average value of fluorescence signals of various repeats of each treatment at studied time point were calculated and compared. […] Viability (LDH) measurements contained 4-6 repeats depending on the study. […]

CYP2B6 gene expression deviation from control (human hepatocytes): 7%
Compound: O=C(O)C(=O)CO [HPA, hydroxypyruvate]
ROS compared to 0 dose/control (in words) [1]: decrease ROS levels significantly; also recorded: reduced ROS
HO-1 gene expression deviation from control (human hepatocytes): 1%
PGC-1a gene expression deviation from control (human hepatocytes): −2%
Change in NAD+/NADH vs. Control [2]: −47%
NAD+ [2]: 0.010
NAD+/NADH [2]: 0.045
NADH [2]: 0.222
NADtot [2]: 0.232
viability compared to 0 dose (in words) [3]: modestly increase the viability

Compound: O=C(O)[C@@H](O)CO [LGA, L-glyceric acid]
ROS compared to 0 dose/control (in words) [1]: decrease ROS levels significantly
viability compared to 0 dose (in words) [3]: modestly increase the viability

Compound: trolox [Vitamin E, reference compound]
decrease of viability ([3]; donor one, High Medium only, equimolar comparison, 20+20+1.5 h, FIG. 6): ~23%
